IC50 data for one compound are collected here from patent US20150259300A1, “4-(ORTHO)-FLUOROPHENYL-5-FLUOROPYRIMIDIN-2-YL AMINES CONTAINING A SULFONE GROUP” (BAYER PHARMA AKTIENGESELLSCHAFT, priority 2012, published 2015).

Assay type in all cases: cell-based
In one assay the test system is DU145 cells. Description: Proliferation assay (crystal violet), DU145. The conditions noted are these: Homo sapiens, DU-145, 96 h; DU145, 4 days; read-out: Inhibition of DU145 cell proliferation IC50. Here is the method: (§1) Cultivated tumour cells (HeLa, human cervical tumour cells, ATCC CCL-2; NCI-H460, human non-small cell lung carcinoma cells, ATCC HTB-177; A2780, human ovarian carcinoma cells, ECACC #93112519; DU 145, hormone-independent human prostate carcinoma cells, ATCC HTB-81; HeLa-MaTu-ADR, multidrug-resistant human cervical carcinoma cells, EPO-GmbH Berlin; Caco-2, human colorectal carcinoma cells, ATCC HTB-37; B 16F10, mouse melanoma cells, ATCC CRL-6475) were plated at a density of 5,000 cells/well (DU145, HeLa-MaTu-ADR), 3,000 cells/well (NCI-H460, HeLa), 2,500 cells/well (A2780), 1,500 cells/well (Caco-2), or 1,000 cells/well (B16F10) in a 96-well multititer plate in 200 μL of their respective growth medium supplemented 10% fetal calf serum. After 24 hours, the cells of one plate (zero-point plate) were stained with crystal violet (see below), while the medium of the other plates was replaced by fresh culture medium (200 to which the test substances were added in various concentrations (0 μM, as well as in the range of 0.001-10 μM; the final concentration of the solvent dimethyl sulfoxide was 0.5%). The cells were incubated for 4 days in the presence of test substances. Cell proliferation was determined by staining the cells with crystal violet: the cells were fixed by adding 20 μl/measuring point of an 11% glutaric aldehyde solution for 15 minutes at room temperature. […]

The subject of another assay is HeLa-MaTu-ADR cells. Description: Proliferation assay (crystal violet), HeLa-MaTu-ADR. The conditions noted are these: Homo sapiens, 96 h, 4 days, read-out: Inhibition of HeLa-MaTu-ADR cell proliferation IC50. Here is the method:
as §1

The test system of the next assay is Caco-2 cells. Description: Proliferation assay (crystal violet), Caco-2. The conditions noted are these: Homo sapiens, 96 h; Caco-2, 4 days; read-out: Inhibition of Caco-2 cell proliferation IC50. On the procedure:
as §1

In another assay the test system is B16F10 cells. The experiment in a line: Proliferation assay (crystal violet), B16F10. The conditions noted are these: Mus musculus, B16-F10, 96 h; B16F10, 4 days; read-out: Inhibition of B16F10 cell proliferation IC50. Here is the method: as §1
A further assay concerns NCI-H460 cells. The experiment in a line: Proliferation assay (crystal violet), NCI-H460. The conditions noted are these: Homo sapiens, 96 h; NCI-H460, 4 days; read-out: Inhibition of H460 cell proliferation IC50. On the procedure:
as §1

As for `CS(=O)(=O)Cc1cc(Nc2ncc(F)c(-c3ccc(F)cc3F)n2)cc(S(F)(F)(F)(F)F)c1` [Example 6, 4-(2,4-Difluorophenyl)-5-fluoro-N-{3-[(methylsulfonyl)methyl]-5-(pentafluoro-λ^6-sulfanyl)phenyl}pyrimidin-2-amine], the IC50 is 352 nM in the assay on DU145 cells; 220 nM in the assay on HeLa-MaTu-ADR cells; 382 nM in the assay with Caco-2 cells; 951 nM in the assay on B16F10 cells; 386 nM in the assay with NCI-H460 cells.
